Reference: the NIST ThermoML archive (doi:10.1021/je0342320)

Experiment: xn = mol fraction of the nth substance listed
Details: Liquid, Vibrating tube method

CCCCCCCCCC [decane] + COC(=O)OC
mass density [kg/m3]
Details | 100 kPa | 10000 kPa | 20000 kPa | 30000 kPa | 40000 kPa
308.15 K, x2 = 0.0676 | – | – | – | 748.49 | –
308.15 K, x2 = 0.2303 | – | – | – | 774.52 | –
308.15 K, x2 = 0.2934 | – | – | – | 786.53 | –
308.15 K, x2 = 0.4055 | – | – | – | 810.51 | –
308.15 K, x2 = 0.502 | – | – | 827.62 | 835.23 | –
308.15 K, x2 = 0.5476 | – | – | 840.77 | 848.52 | –
308.15 K, x2 = 0.5883 | – | – | 853.46 | 861.27 | –
308.15 K, x2 = 0.665 | – | – | 880.05 | 888.01 | –
308.15 K, x2 = 0.7101 | – | – | 898.05 | 906.21 | –
308.15 K, x2 = 0.7993 | – | – | 937.83 | 946.02 | –
308.15 K, x2 = 0.9062 | – | – | 998.48 | 1006.83 | –
313.15 K, x2 = 0.0676 | 722.58 | 730.76 | 738.28 | 745.23 | 751.65
313.15 K, x2 = 0.2303 | 747.1 | 755.75 | 763.69 | 770.99 | 777.72
313.15 K, x2 = 0.2934 | 758.66 | 767.5 | 775.54 | 782.96 | 789.79
313.15 K, x2 = 0.4055 | 781.63 | 790.74 | 799.07 | 806.72 | 813.78
313.15 K, x2 = 0.502 | 805.45 | 814.81 | 823.33 | 831.19 | 838.42
313.15 K, x2 = 0.5476 | 818.21 | 827.67 | 836.31 | 844.29 | 851.66
313.15 K, x2 = 0.665 | 856.63 | 866.37 | 875.3 | 883.49 | 891.08
313.15 K, x2 = 0.7101 | 874 | 883.94 | 893.08 | 901.47 | 909.27
313.15 K, x2 = 0.7993 | 913.46 | 923.44 | 932.63 | 941.03 | 948.81
313.15 K, x2 = 0.9062 | 973.48 | 983.52 | 992.81 | 1001.36 | 1009.35
318.15 K, x2 = 0.0676 | 718.68 | 727.04 | 734.75 | 741.84 | 748.36
318.15 K, x2 = 0.2303 | 742.9 | 751.73 | 759.87 | 767.35 | 774.2
318.15 K, x2 = 0.2934 | 754.31 | 763.4 | 771.65 | 779.22 | 786.19
318.15 K, x2 = 0.4055 | 777.08 | 786.45 | 794.97 | 802.8 | 809.98
318.15 K, x2 = 0.502 | 800.57 | 810.24 | 819.01 | 827.05 | 834.42
318.15 K, x2 = 0.5476 | 813.18 | 822.96 | 831.86 | 840 | 847.53
318.15 K, x2 = 0.665 | 851.25 | 861.33 | 870.52 | 878.91 | 886.65
318.15 K, x2 = 0.7101 | 868.41 | 878.62 | 888.03 | 896.64 | 904.62
318.15 K, x2 = 0.7993 | 907.56 | 917.9 | 927.38 | 936.02 | 944
318.15 K, x2 = 0.9062 | 967.13 | 977.56 | 987.16 | 995.97 | 1004.15
323.15 K, x2 = 0.0676 | 714.71 | 723.36 | 731.25 | 738.46 | 745.15
323.15 K, x2 = 0.2303 | 738.81 | 747.9 | 756.2 | 763.83 | 770.85
323.15 K, x2 = 0.2934 | 749.94 | 759.3 | 767.8 | 775.53 | 782.66
323.15 K, x2 = 0.4055 | 772.41 | 782.1 | 790.9 | 798.87 | 806.24
323.15 K, x2 = 0.502 | 795.68 | 805.66 | 814.72 | 822.91 | 830.5
323.15 K, x2 = 0.5476 | 808.16 | 818.26 | 827.41 | 835.74 | 843.43
323.15 K, x2 = 0.665 | 845.86 | 856.25 | 865.73 | 874.34 | 882.27
323.15 K, x2 = 0.7101 | 862.69 | 873.27 | 882.95 | 891.78 | 899.97
323.15 K, x2 = 0.7993 | 901.72 | 912.4 | 922.17 | 931.08 | 939.25
323.15 K, x2 = 0.9062 | 960.79 | 971.62 | 981.53 | 990.6 | –
328.15 K, x2 = 0.0676 | 710.69 | 719.66 | 727.74 | 735.12 | 741.93
328.15 K, x2 = 0.2303 | 734.47 | 743.93 | 752.49 | 760.25 | 767.41
328.15 K, x2 = 0.2934 | 745.53 | 755.2 | 763.94 | 771.85 | 779.13
328.15 K, x2 = 0.4055 | 767.74 | 777.74 | 786.78 | 794.98 | 802.5
328.15 K, x2 = 0.502 | 790.73 | 801.04 | 810.36 | 818.78 | 826.54
328.15 K, x2 = 0.5476 | 803.07 | 813.56 | 822.99 | 831.5 | 839.36
328.15 K, x2 = 0.665 | 840.35 | 851.18 | 860.94 | 869.79 | 877.9
328.15 K, x2 = 0.7101 | 857.01 | 867.93 | 877.85 | 886.87 | 895.22
328.15 K, x2 = 0.7993 | 895.68 | 906.86 | 916.93 | 926.1 | 934.48
328.15 K, x2 = 0.9062 | 954.3 | 965.6 | 975.83 | 985.17 | 993.79
